Measurements: paper PMC11628397 (Nature Synthesis, 2024)
≈ marks a conversion by molar mass, not a printed value.

Assays:
[1] = kinetic solubility in phosphate-buffered saline, pH 7.4; type: physicochemical; conditions: pH 7.4, aqueous buffer, kinetic from dmso stock
[2] = metabolic stability in human liver microsomes
[3] = system: human cancer cell line MCF-7; assay: resazurin reduction assay, growth inhibition of MCF-7; type: cell-based; conditions: MCF7, read-out: IC50, inhibition of the growth of MCF-7
[4] = system: human cancer cell line MCF-7; conditions: MCF-7 human cancer cell line; cited from earlier work
MCF-7 cells = conditions: cited from earlier work

solubility kinetic [1] [µM]	CLint, metabolic stability (as printed in text) [2] [mg/min/µL]	IC50 [3] [µM]	Compound	effect on cell growth (in words) [4]	cell differentiation, intracellular lipid droplets (in words) (MCF-7 cells)
385 (≈ 63.6 µg/mL)	83	–	CCOC(=O)c1ccc(N)cc1 [Benzocaine]	–	–
≤ 1	–	31.3 ± 7.8	CC(C)(C)c1ccc(CN2CCN(C(c3ccccc3)c3ccc(Cl)cc3)CC2)cc1 (stereo not drawn) [Buclizine]	cytostatic effect	induced cell differentiation
